Laboratory results as given in US8309790B2, “Animal models for demyelination disorders” (University of Chicago, priority 2005, dated 2012).
Several values for one entry are separate records, joined by “and”; a condition that tells them apart may be missing. Equal values may be shown once.

Assays:
mice with EAE [1] = assay: EAE, CNS delivery of INF-γ at the recovery stage (doxycycline withdrawn at PID7); assay type: in vivo
Excerpt: Double transgenic mice that allow for temporally regulated delivery of INF-γ to the CNS (Lin et al., J Neurosci 24:10074-10083 (2004)) were used to assess the role of INF-γ in the pathogenesis of EAE. GFAP/tTA; TRE/IFN-γ double transgenic mice, as described in Example 1 were used to determine the effect of INF-γ on the demyelination caused by EAE. All mice were fed doxycycline from the day of conception to repress the expression of INF-γ, and were immunized with myelin oligodendrocyte protein (MOG35-55) to induce EAE. At day 7 postimmunization (PID7), doxycycline was withdrawn from the experimental group (PID7 DOX−).
The level of INF-γ was determined in the control (DOX+) and the PID7 DOX− mice using an ELISA immunoassay as described in Example 1, and the severity of the disease was assessed as a function of a clinical score. Clinical severity scores were recorded daily according to a 0-5 point scale, where 0=healthy, 1=flaccid tail, 2=ataxia and/or paresis of hind limbs, 3=paralysis of hind limbs and/or paresis of forelimbs, 4=tetraparalysis, and 5=moribund or dead.
The spinal cord from DOX+ and DOX− animals with EAE was immunostained for MBP, and the remyelination of axons was evaluated. The number of oligodendrocytes was determined in the spine from DOX+ and DOX− mice as the number of CC1 positive cells. Axonal damage was evaluated by immunostaining of non-phosphorylated neurofilament-H. Antibodies to non-phosphorylated neurofilament-H were SMI32 diluted to 1:1000 and obtained from Stemberger Monoclonals.
INF-γ is known to induce MHC antigens and activate macrophages and T lymphocytes. The inflammatory effect of INF-γ was studied in the CNS during remyelination by determining the infiltration of T cells and macrophages, and measuring the expression of MHC-1, TNF-a, IL-2, IL-12 and IL-17. Immunohistochemistry was performed in tissues from the DOX+ and DOX− mice with EAE as described in Example 4. Experimental procedures were followed as described in the examples above.

[2] = system: cultured rat oligodendrocytes; assay: IFN-γ treatment of cultured rat oligodendrocytes (apoptosis, ER stress markers); assay type: cell-based
Description: To test whether apoptosis of oligodendrocytes that is induced by INF-γ affects ER stress, the effect on the morphology, the degree of apoptosis and the expression of ER markers was studied in a culture of oligodendrocyte precursor cells (OPC). Oligodendrocyte progenitors were cultured from neonatal rat brains (Baerwald, et al. (1998) J. Neurosci. Res. 52: 230-239). A mixed glial culture was grown in flasks in medium containing 10% fetal bovine serum (FBS), and when the astrocyte layer became confluent (10-14 days), oligodendrocyte progenitors were separated from astrocytes and microglia using an orbital shaker. Cells, greater than 95% of which were A2B5 positive, GFAP negative and CD11b negative, were cultured in 0.5% FBS containing medium, which also contained PDGF (10 ng/ml) and FGF (5 ng/ml) (both from R&D Systems, Minneapolis, Minn.). Then cells were switched to 0.5% FBS medium without PDGF and FGF for differentiation. After 5 days in the differentiating medium, approximately 40% of cells were positive for myelin protein 2′3′-cyclic nucleotide 3′-phosphodiestaerase (CNP). 70 U/ml recombinant rat IFN-γ (Calbiochem, La Jolla, Calif.) was added to the cells that had been allowed to differentiation for 5 days. After 5 d in the differentiating medium, about 40% of the cells were CNP positive. 70 U/ml of recombinant rat INF-γ (Calbiochem) was added to the cells that had been allowed to differentiate for 5d. To examine the oligodendroglial response to general ER stress-inducing agents, progenitor cells that had been cultured in differentiation medium for 5 or 7 days were treated with 2 μg/ml of tunicamycin (Sigma Aldrich) for 6 hours.
The level of apoptosis of the OPC cells was determined by double staining CNP (1:200; Stemberger Monoclonals, Lutherville, Md.) and TUNEL using the ApopTag Kit (Serologicals Corp., Norcross, […].) and following the manufacturer's instructions. Apoptosis was also evaluated by measuring the activity of caspase-3 in oligodendrocyte lysates using the Fluorimetric Caspase 3 Assay Kit (Sigma, St. Louis, Mo.), according to the manufacturer's instructions.
To determine whether INF-γ affects ER function, the RNA expression of ER markers binding immunoglobulin protein (BIP), CAAT enhancer binding protein homologous protein (CHOP), and caspase 12 was determined using real time PCR. RNA was isolated from cultured cells and mice brain using Trizol reagent (Invitrogen, Carlsbad, Calif.) and treated with DNAaseI (Invitrogen) to eliminate genomic DNA. Reverse transcription was performed using Superscript First Strand Synthesis System for RT-PCR kit (Invitrogen). Real-time PCR was performed with iQ Supermix (Bio-Rad, Hercules, Calif.) on a Bio-Rad iQ real-time PCR detection system (Bio-Rad). The following primers and probes (Integrated DNA Technologies Inc., Coralville, Iowa) for real-time PCR were used: mouse CHOP sense primer […] (SEQ ID NO: 34); mouse CHOP antisense primer […] (SEQ ID NO: 35); CHOP probe […] (SEQ ID NO: 36); mouse BIP sense primer […] (SEQ ID NO: 31); mouse BIP antisense primer […] (SEQ ID NO: 32); BIP probe […] (SEQ ID NO: 33); mouse caspase 12 sense primer […] (SEQ ID NO: 37); and mouse caspase antisense primer […] (SEQ ID NO: 38).
To determine the effect of INF-γ on the level of phosphorylated eIF-2α and caspase 12 proteins, western blot analysis was performed using the following antibodies anti-eIF-2α (1:500; Santa Cruz), anti-p-eIF-2α (1:1000, Cell signaling Technology), anti-caspase-12 (1:500; Santa Cruz) and anti-actin (1:1000; Sigma, St Louis, Mo.), and according to the following protocol. […]

mice with EAE [3] = assay: EAE, CNS delivery of INF-γ at the onset of EAE, double (PERK+/+) and triple (PERK+/−) mice; assay type: in vivo; conditions: for Mean of maximum clinical score (mean ± S.D.): 0-5 point scale; for Day of onset of disease (PID: postimmunization day): n = 25; for expression of iNOs, TNF-a, IL-2, IL-12 and IL-10 in the spinal cord: PID 14 (EAE onset), DOX− vs DOX+
[4] = spinal cord, DOX− compared to DOX+, PID50

In the case of interferon-γ [IFN-γ], the “number of CC1 positive oligodendrocytes” value (mice with EAE [1]; DOX− animals, lumbar spinal cord, PID50) is reported as “significantly decreased”, the “mice that developed hind limb paralysis” value (mice with EAE [1]; DOX− mice, PID17) is reported as 24 of 30 and the “mean maximum clinical score” value (mice with EAE [1]; DOX− mice, PID17, 0-5 point scale) is reported as 2.69±0.69. The clinical score (mice with EAE [1]; DOX− mice, PID50) was ~2, the “mice with hind limb paralysis that continued to suffer from the paralysis” value (mice with EAE [1]; DOX− mice, PID50) was 12/24 and the “axonal damage (non-phosphorylated neurofilament-H immunostaining)” value (mice with EAE [1]; DOX− vs DOX+ mice) was “not affected”. For the same substance, the “number of infiltrating T cells and macrophages in the lumbar spinal cord (CD3, CD11b)” value (mice with EAE [1]; DOX− vs DOX+ mice) was “did not increase significantly”, the “expression of IL-17” value (mice with EAE [1]; [4]) was “decrease” and the “expression of iNOs and IL-23” value (mice with EAE [1]; [4]) was “did not alter”. The “expression of MHC-1, TNF-a, IL2 and IL-12” value (mice with EAE [1]; spinal cord, DOX− compared to DOX+, PID50, real time PCR) was “increased”, the “caspase-3 activity in the cell lysates” value ([2]; 70 U/ml IFN-γ) was “markedly increased” and the “apoptosis, TUNEL and CNP double labeling” value ([2]; 70 U/ml IFN-γ for 48 h) was “induced apoptosis in a significant number of oligodendrocytes”. For the same substance, the cell morphology ([2]; 70 U/ml IFN-γ for 48 h, cells differentiated 5 days) was “abnormal morphological changes”, the “level of phosphorylated eIF-2α (p-eIF-2α)” value ([2]; 70 U/ml IFN-γ, Western blot) was “significantly elevated” and the caspase-12 expression ([2]; 70 U/ml IFN-γ, real-time PCR) was “induction of caspase-12 was observed”. For the same substance, the “levels of mRNA encoding BIP/GRP78 and CHOP/GADD153” value ([2]; 70 U/ml IFN-γ, real-time PCR) was 2 to 3 times, the “level of the active fragment of caspase-12” value ([2]; after 48 h of IFN-γ treatment, Western blot) was “strongly elevated” and the “Mean of maximum clinical score (mean ± S.D.)” value (mice with EAE [3]; DOX− double mice) was 1.63 ± 0.51. For the same substance, the “MBP mRNA in the spinal cord compared to age-matched naïve mice” value (mice with EAE [3]; DOX− double mice, PID17, real-time PCR) was “not significantly decreased”, the “Day of onset of disease (PID: postimmunization day)” value (mice with EAE [3]; DOX− double mice) was 14.7 ± 1.4 and the “Incidence of hind limb paralysis” value (mice with EAE [3]; DOX− double mice, listed as INF-γ) was 2 of 25 and 2/25. For the same substance, the “Incidence of hind limb paralysis” value (mice with EAE [3]; DOX− triple mice (PERK+/−)) was 18/25, the “Mean of maximum clinical score (mean ± S.D.)” value (mice with EAE [3]; DOX− triple mice (PERK+/−)) was 2.71 ± 1.11 and the “Day of onset of disease (PID: postimmunization day)” value (mice with EAE [3]; DOX− triple mice (PERK+/−)) was 13.6 ± 0.8. For the same substance, the “expression of iNOs, TNF-a, IL-2, IL-12 and IL-10 in the spinal cord” value (mice with EAE [3]) was “strongly enhanced”, the “expression of iNOs, TNF-a, IL-2, IL-12 and IL-10 in the spinal cord” value (mice with EAE [3]; listed as INF-γ) was “increased” and the “expression of IL-2 and IL-5 in the spinal cord” value (mice with EAE [3]; PID 14, DOX− vs DOX+) was “did not affect”. For the same substance, the “CD3 positive T cell infiltration in the spinal cord” value (mice with EAE [3]; at EAE onset) was “did not significantly affect”, the “CD11b positive monocyte infiltration in the spinal cord” value (mice with EAE [3]; at EAE onset) was “increased” and the “CD11b positive monocyte infiltration” value (mice with EAE [3]; at the peak of disease) was “did not change”. The “expression of iNOs or TNF-γ” value (mice with EAE [3]; at the peak of disease) was “did not significantly affect”, the EAE disease course (mice with EAE [3]; mice heterozygous for the PERK mutation) was “did not ameliorate” and the “PERK-eIF2α pathway in oligodendrocytes (p-PERK, p-eIF2α, CC1 colocalization)” value (mice with EAE [3]; spinal cord, EAE onset) was “markedly activated”.
